Assay results published in ChEMBL document CHEMBL1201862, “PubChem BioAssay data set” (2004).
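Values below derive from 48-hour exposures of cells grown in 96-well plates, with endpoints linearly interpolated between the two concentrations bracketing the appropriate inhibition level. Here, GI50 denotes the concentration required for 50% inhibition of growth.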 Calls of active or inactive are those of the source. Rule as the data show it: active = GI50 up to about 1.1 µM and inactive = higher.

Key:
Assay in all cases: NCI tumour cell line growth inhibition, 48 h
786-0 = tested on: 786-0
A498 = tested on: A498
A549 = tested on: A549
ACHN = tested on: ACHN
CAKI-1 = tested on: CAKI-1
CCRF-CEM = tested on: CCRF-CEM
COLO 205 = tested on: COLO 205
DU-145 = tested on: DU-145
EKVX = tested on: EKVX
HCT-116 = tested on: HCT-116
HCT-15 = tested on: HCT-15
HL-60 = tested on: HL-60
HOP-62 = tested on: HOP-62
HOP-92 = tested on: HOP-92
HT-29 = tested on: HT-29
Hs-578T = tested on: Hs-578T
IGROV-1 = tested on: IGROV-1
K562 = tested on: K562
KM12 = tested on: KM12
LOX IMVI = tested on: LOX IMVI
M14 = tested on: M14
MCF7 = tested on: MCF7
MDA-MB-231 = tested on: MDA-MB-231
MDA-MB-435 = tested on: MDA-MB-435
MDA-N = tested on: MDA-N
MOLT-4 = tested on: MOLT-4
Malme-3M = tested on: Malme-3M
NCI-H226 = tested on: NCI-H226
NCI-H23 = tested on: NCI-H23
NCI-H460 = tested on: NCI-H460
NCI-H522 = tested on: NCI-H522
NCI/ADR-RES = tested on: NCI/ADR-RES
OVCAR-3 = tested on: OVCAR-3
OVCAR-4 = tested on: OVCAR-4
OVCAR-5 = tested on: OVCAR-5
OVCAR-8 = tested on: OVCAR-8
PC-3 = tested on: PC-3
RPMI-8226 = tested on: RPMI-8226
RXF 393 = tested on: RXF 393
SF-268 = tested on: SF-268
SF-295 = tested on: SF-295
SF-539 = tested on: SF-539
SK-MEL-28 = tested on: SK-MEL-28
SK-MEL-2 = tested on: SK-MEL-2
SK-MEL-5 = tested on: SK-MEL-5
SK-OV-3 = tested on: SK-OV-3
SN12C = tested on: SN12C
SNB-19 = tested on: SNB-19
SNB-75 = tested on: SNB-75
SR = tested on: SR
SW-620 = tested on: SW-620
TK-10 = tested on: TK-10
U-251 = tested on: U-251
UACC-257 = tested on: UACC-257
UACC-62 = tested on: UACC-62
UO-31 = tested on: UO-31
HCC 2998 = tested on: HCC 2998

Compound: CC(C)Oc1c(O)c2c3c(oc(=O)n3C=CC2c2ccccc2F)c1OC(C)C (configuration not stated)
- GI50 (786-0): 33.4 µM (inactive)
- GI50 (A498): 38.6 µM (inactive)
- GI50 (A549): 26.8 µM (inactive)
- GI50 (ACHN): 35.7 µM (inactive)
- GI50 (CAKI-1): 38.5 µM (inactive)
- GI50 (CCRF-CEM): 24.8 µM (inactive)
- GI50 (COLO 205): 18.7 µM (inactive)
- GI50 (DU-145): 63.8 µM (inactive)
- GI50 (EKVX): 41.1 µM (inactive)
- GI50 (HCT-116): 21.7 µM (inactive)
- GI50 (HCT-15): 33 µM
- GI50 (HL-60): 20.1 µM (inactive)
- GI50 (HOP-62): 27.5 µM (inactive)
- GI50 (HOP-92): 28.1 µM (inactive)
- GI50 (HT-29): 21.7 µM (inactive)
- GI50 (Hs-578T): 75.7 µM (inactive)
- GI50 (IGROV-1): 44.8 µM (inactive)
- GI50 (K562): 30.5 µM (inactive)
- GI50 (KM12): 29.1 µM (inactive)
- GI50 (LOX IMVI): 17.5 µM (inactive)
- GI50 (M14): 24.8 µM (inactive)
- GI50 (MCF7): 28.8 µM (inactive)
- GI50 (MDA-MB-231): 27.7 µM (inactive)
- GI50 (MDA-MB-435): 26.3 µM (inactive)
- GI50 (MDA-N): 30.9 µM (inactive)
- GI50 (MOLT-4): 18.7 µM (inactive)
- GI50 (Malme-3M): 39.1 µM (inactive)
- GI50 (NCI-H226): 32.6 µM (inactive)
- GI50 (NCI-H23): 30.5 µM (inactive)
- GI50 (NCI-H460): 25 µM (inactive)
- GI50 (NCI-H522): 33.8 µM (inactive)
- GI50 (NCI/ADR-RES): 34.4 µM (inactive)
- GI50 (OVCAR-3): 44.1 µM (inactive)
- GI50 (OVCAR-4): 46 µM (inactive)
- GI50 (OVCAR-5): 20 µM (inactive)
- GI50 (OVCAR-8): 41.8 µM (inactive)
- GI50 (PC-3): 13.5 µM (inactive)
- GI50 (RPMI-8226): 17.3 µM (inactive)
- GI50 (RXF 393): 21 µM (inactive)
- GI50 (SF-268): 64.9 µM (inactive)
- GI50 (SF-295): 25.6 µM (inactive)
- GI50 (SF-539): 22.5 µM (inactive)
- GI50 (SK-MEL-28): 53.8 µM (inactive)
- GI50 (SK-MEL-2): 15.5 µM (inactive)
- GI50 (SK-MEL-5): 18.4 µM (inactive)
- GI50 (SK-OV-3): > 100 µM (inactive)
- GI50 (SN12C): 38.4 µM (inactive)
- GI50 (SNB-19): 39.3 µM (inactive)
- GI50 (SNB-75): 20.7 µM (inactive)
- GI50 (SR): 16.7 µM (inactive)
- GI50 (SW-620): 32.9 µM (inactive)
- GI50 (TK-10): 40.6 µM (inactive)
- GI50 (U-251): 35.9 µM (inactive)
- GI50 (UACC-257): 28.6 µM (inactive)
- GI50 (UACC-62): 21.1 µM (inactive)
- GI50 (UO-31): 24.4 µM (inactive)

Compound: COc1cc(C(=O)N2CCN(C=O)C2=S)cc(OC)c1OC
- GI50 (RPMI-8226): 7.31 µM (inactive)
- GI50 (UO-31): 0.0675 µM (active)

Compound: CO[C@@H]1/C=C\C=C(/C)C(=O)NC2=CC(=O)C(NCCN(C)C)=C(C[C@@H](C)C[C@@H](OC)[C@@H](O)[C@H](C)/C=C(\C)[C@H]1OC(N)=O)C2=O
- GI50 (786-0): 0.0286 µM (active)
- GI50 (A498): 13.2 µM (inactive)
- GI50 (A549): < 0.01 µM (active)
- GI50 (CCRF-CEM): 0.0247 µM (active)
- GI50 (COLO 205): 0.0145 µM (active)
- GI50 (HCC 2998): 0.015 µM (active)
- GI50 (HCT-116): 0.0171 µM (active)
- GI50 (HCT-15): 0.619 µM
- GI50 (IGROV-1): 0.0139 µM (active)
- GI50 (K562): 0.0139 µM (active)
- GI50 (KM12): 0.0122 µM (active)
- GI50 (LOX IMVI): 0.0108 µM (active)
- GI50 (M14): 0.0104 µM (active)
- GI50 (MCF7): < 0.01 µM (active)
- GI50 (MOLT-4): 0.0303 µM (active)
- GI50 (Malme-3M): 0.013 µM (active)
- GI50 (NCI-H23): < 0.01 µM (active)
- GI50 (OVCAR-4): 1.14 µM (inactive)
- GI50 (OVCAR-8): 0.0172 µM (active)
- GI50 (RPMI-8226): 0.0713 µM (active)
- GI50 (SK-OV-3): 0.0137 µM (active)
- GI50 (SN12C): 0.0113 µM (active)
- GI50 (SNB-19): 0.0292 µM (active)
- GI50 (SNB-75): < 0.01 µM (active)
- GI50 (SR): < 0.01 µM (active)
- GI50 (U-251): 0.011 µM (active)
- GI50 (UACC-257): 0.0159 µM (active)
- GI50 (UACC-62): 0.0172 µM (active)
- GI50 (UO-31): 0.838 µM (active)
